What was measured:
[1] = molecular target: Ephrin type-A receptor 3 (Homo sapiens) (UniProt P29320); conditions: Compound concentration 1000.0 nM
[2] = tested on: ALK tyrosine kinase receptor (Homo sapiens), Q9UM73 [L1196M]; conditions: Compound concentration 1000.0 nM
[3] = molecular target: Phosphatidylinositol 3-kinase catalytic subunit type 3 (Homo sapiens) (UniProt Q8NEB9); conditions: Compound concentration 1000.0 nM
[4] = molecular target: Serine/threonine-protein kinase 32A (Homo sapiens) (UniProt Q8WU08); conditions: Compound concentration 1000.0 nM
[5] = molecular target: Serine/threonine-protein kinase ULK3 (Homo sapiens) (UniProt Q6PHR2); conditions: Compound concentration 1000.0 nM
[6] = molecular target: Phosphorylase b kinase gamma catalytic chain, skeletal muscle/heart isoform (Homo sapiens) (UniProt Q16816); conditions: Compound concentration 1000.0 nM
[7] = molecular target: Wee1-like protein kinase 2 (Homo sapiens) (UniProt P0C1S8); conditions: Compound concentration 1000.0 nM
[8] = tested on: Hepatocyte growth factor receptor (Homo sapiens), P08581 [M1250T]; conditions: Compound concentration 1000.0 nM
[9] = molecular target: Tyrosine-protein kinase Mer (Homo sapiens) (UniProt Q12866); conditions: Compound concentration 1000.0 nM
[10] = molecular target: Microtubule-associated serine/threonine-protein kinase 1 (Homo sapiens) (UniProt Q9Y2H9); conditions: Compound concentration 1000.0 nM
[11] = tested on: Epidermal growth factor receptor (Homo sapiens), P00533 [UNDEFINED MUTATION]; conditions: Compound concentration 1000.0 nM
[12] = molecular target: Serine/threonine-protein kinase Nek1 (Homo sapiens) (UniProt Q96PY6); conditions: Compound concentration 1000.0 nM
[13] = molecular target: Serine/threonine-protein kinase 26 (Homo sapiens) (UniProt Q9P289); conditions: Compound concentration 1000.0 nM
[14] = molecular target: Dual specificity tyrosine-phosphorylation-regulated kinase 1A (Homo sapiens) (UniProt Q13627); conditions: Compound concentration 1000.0 nM
[15] = molecular target: Cyclin-dependent kinase 19 (Homo sapiens) (UniProt Q9BWU1); conditions: Compound concentration 1000.0 nM
[16] = molecular target: Phosphatidylinositol 4,5-bisphosphate 3-kinase catalytic subunit gamma isoform (Homo sapiens) (UniProt P48736); conditions: Compound concentration 1000.0 nM
[17] = molecular target: Glycogen synthase kinase-3 alpha (Homo sapiens) (UniProt P49840); conditions: Compound concentration 1000.0 nM
[18] = molecular target: Casein kinase I isoform delta (Homo sapiens) (UniProt P48730); conditions: Compound concentration 1000.0 nM
[19] = molecular target: Mitogen-activated protein kinase kinase kinase 12 (Homo sapiens) (UniProt Q12852); conditions: Compound concentration 1000.0 nM
[20] = tested on: Tyrosine-protein kinase ABL1 (Homo sapiens), P00519 [F317L]; conditions: Compound concentration 1000.0 nM
[21] = molecular target: Alpha-2B adrenergic receptor (Homo sapiens) (UniProt P18089); conditions: Compound concentration 10.0 uM
[22] = molecular target: D(1B) dopamine receptor (Homo sapiens) (UniProt P21918); conditions: Compound concentration 10.0 uM
[23] = molecular target: Mitogen-activated protein kinase 8 (Homo sapiens) (UniProt P45983); conditions: Compound concentration 1000.0 nM
[24] = molecular target: Dual specificity tyrosine-phosphorylation-regulated kinase 2 (Homo sapiens) (UniProt Q92630); conditions: Compound concentration 1000.0 nM
[25] = molecular target: Atypical kinase COQ8B, mitochondrial (Homo sapiens) (UniProt Q96D53); conditions: Compound concentration 1000.0 nM
[26] = molecular target: Activin receptor type-1-like (Homo sapiens) (UniProt P37023); conditions: Compound concentration 1000.0 nM
[27] = molecular target: Ribosomal protein S6 kinase alpha-4 (Homo sapiens) (UniProt O75676); conditions: Compound concentration 1000.0 nM
[28] = molecular target: Ankyrin repeat and protein kinase domain-containing protein 1 (Homo sapiens) (UniProt Q8NFD2); conditions: Compound concentration 1000.0 nM
[29] = molecular target: Serine/threonine-protein kinase DCLK3 (Homo sapiens) (UniProt Q9C098); conditions: Compound concentration 1000.0 nM
[30] = molecular target: Tyrosine-protein kinase receptor TYRO3 (Homo sapiens) (UniProt Q06418); conditions: Compound concentration 1000.0 nM
[31] = molecular target: Myosin-IIIa (Homo sapiens) (UniProt Q8NEV4); conditions: Compound concentration 1000.0 nM
[32] = molecular target: Cytoplasmic tyrosine-protein kinase BMX (Homo sapiens) (UniProt P51813); conditions: Compound concentration 1000.0 nM
[33] = molecular target: Interferon-induced, double-stranded RNA-activated protein kinase (Homo sapiens) (UniProt P19525); conditions: Compound concentration 1000.0 nM
[34] = molecular target: Mitogen-activated protein kinase kinase kinase 1 (Homo sapiens) (UniProt Q13233); conditions: Compound concentration 1000.0 nM
[35] = tested on: eIF-2-alpha kinase GCN2 (Homo sapiens), Q9P2K8 [S808G]; conditions: Compound concentration 1000.0 nM
[36] = molecular target: MAP kinase-activated protein kinase 5 (Homo sapiens) (UniProt Q8IW41); conditions: Compound concentration 1000.0 nM
[37] = molecular target: cAMP-dependent protein kinase catalytic subunit beta (Homo sapiens) (UniProt P22694); conditions: Compound concentration 1000.0 nM
[38] = molecular target: Serine/threonine-protein kinase LATS1 (Homo sapiens) (UniProt O95835); conditions: Compound concentration 1000.0 nM
[39] = molecular target: MAP kinase-activated protein kinase 2 (Homo sapiens) (UniProt P49137); conditions: Compound concentration 1000.0 nM
[40] = molecular target: Tyrosine-protein kinase receptor Tie-1 (Homo sapiens) (UniProt P35590); conditions: Compound concentration 1000.0 nM
[41] = molecular target: Serine/threonine-protein kinase pim-1 (Homo sapiens) (UniProt P11309); conditions: Compound concentration 1000.0 nM
[42] = molecular target: Phosphatidylinositol 3-kinase C2 domain-containing subunit gamma (Homo sapiens) (UniProt O75747); conditions: Compound concentration 1000.0 nM
[43] = molecular target: High affinity nerve growth factor receptor (Homo sapiens) (UniProt P04629); conditions: Compound concentration 1000.0 nM
[44] = molecular target: Mitotic checkpoint serine/threonine-protein kinase BUB1 (Homo sapiens) (UniProt O43683); conditions: Compound concentration 1000.0 nM
[45] = molecular target: TGF-beta receptor type-2 (Homo sapiens) (UniProt P37173); conditions: Compound concentration 1000.0 nM

Chain of Serine/threonine-protein kinase ULK3 (Homo sapiens) (Q6PHR2 whole entry, canonical isoform): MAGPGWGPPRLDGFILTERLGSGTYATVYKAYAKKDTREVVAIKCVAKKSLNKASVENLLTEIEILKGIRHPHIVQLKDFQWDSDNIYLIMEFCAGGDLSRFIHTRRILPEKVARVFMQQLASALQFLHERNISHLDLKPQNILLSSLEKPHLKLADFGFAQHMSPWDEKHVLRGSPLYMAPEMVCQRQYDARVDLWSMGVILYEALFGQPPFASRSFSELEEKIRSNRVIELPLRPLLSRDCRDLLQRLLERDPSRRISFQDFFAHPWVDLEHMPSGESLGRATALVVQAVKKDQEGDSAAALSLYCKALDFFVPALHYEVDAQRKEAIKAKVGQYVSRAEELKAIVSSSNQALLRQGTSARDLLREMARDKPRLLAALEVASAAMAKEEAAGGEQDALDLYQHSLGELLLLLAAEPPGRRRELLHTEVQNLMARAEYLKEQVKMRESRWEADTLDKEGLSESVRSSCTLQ
Chain of Phosphatidylinositol 3-kinase catalytic subunit type 3 (Homo sapiens) (Q8NEB9 whole entry): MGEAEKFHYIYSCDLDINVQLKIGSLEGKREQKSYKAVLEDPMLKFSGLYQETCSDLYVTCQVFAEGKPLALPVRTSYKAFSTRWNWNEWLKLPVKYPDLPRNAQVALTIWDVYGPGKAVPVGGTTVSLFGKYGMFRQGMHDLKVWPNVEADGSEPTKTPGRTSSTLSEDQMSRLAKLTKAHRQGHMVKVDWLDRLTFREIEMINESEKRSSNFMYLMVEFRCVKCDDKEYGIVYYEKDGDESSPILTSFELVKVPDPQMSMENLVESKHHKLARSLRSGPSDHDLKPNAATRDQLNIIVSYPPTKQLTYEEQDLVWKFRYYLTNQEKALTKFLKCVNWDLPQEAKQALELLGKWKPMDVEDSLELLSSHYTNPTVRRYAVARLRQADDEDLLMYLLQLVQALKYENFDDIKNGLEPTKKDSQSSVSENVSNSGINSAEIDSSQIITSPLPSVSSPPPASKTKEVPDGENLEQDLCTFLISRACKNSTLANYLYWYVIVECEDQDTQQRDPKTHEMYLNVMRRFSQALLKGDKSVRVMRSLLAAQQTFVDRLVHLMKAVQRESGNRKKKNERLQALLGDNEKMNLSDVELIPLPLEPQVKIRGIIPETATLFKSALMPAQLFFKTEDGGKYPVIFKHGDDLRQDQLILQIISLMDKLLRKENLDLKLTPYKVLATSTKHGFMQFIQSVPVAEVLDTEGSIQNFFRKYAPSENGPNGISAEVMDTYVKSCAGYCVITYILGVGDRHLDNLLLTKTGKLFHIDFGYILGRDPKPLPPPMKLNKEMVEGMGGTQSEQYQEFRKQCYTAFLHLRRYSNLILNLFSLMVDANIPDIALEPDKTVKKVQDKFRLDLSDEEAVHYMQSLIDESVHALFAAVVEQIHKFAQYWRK
Chain of Wee1-like protein kinase 2 (Homo sapiens) (P0C1S8 whole entry, looked up): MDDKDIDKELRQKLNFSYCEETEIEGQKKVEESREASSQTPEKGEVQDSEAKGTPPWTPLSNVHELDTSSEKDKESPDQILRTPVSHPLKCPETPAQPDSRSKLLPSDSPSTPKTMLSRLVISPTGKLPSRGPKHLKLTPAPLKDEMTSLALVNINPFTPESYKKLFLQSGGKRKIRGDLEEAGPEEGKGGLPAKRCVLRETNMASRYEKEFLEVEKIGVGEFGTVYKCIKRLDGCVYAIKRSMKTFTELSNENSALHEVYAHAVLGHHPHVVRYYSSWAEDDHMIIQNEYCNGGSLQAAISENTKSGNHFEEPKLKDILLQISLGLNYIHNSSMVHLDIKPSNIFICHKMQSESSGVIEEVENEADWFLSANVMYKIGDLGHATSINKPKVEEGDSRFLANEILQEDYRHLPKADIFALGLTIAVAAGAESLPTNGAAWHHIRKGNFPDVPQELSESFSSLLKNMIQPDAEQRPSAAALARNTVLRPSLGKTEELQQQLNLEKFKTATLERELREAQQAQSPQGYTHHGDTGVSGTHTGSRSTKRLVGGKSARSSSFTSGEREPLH
Chain of Tyrosine-protein kinase receptor TYRO3 (Homo sapiens) (Q06418 whole entry): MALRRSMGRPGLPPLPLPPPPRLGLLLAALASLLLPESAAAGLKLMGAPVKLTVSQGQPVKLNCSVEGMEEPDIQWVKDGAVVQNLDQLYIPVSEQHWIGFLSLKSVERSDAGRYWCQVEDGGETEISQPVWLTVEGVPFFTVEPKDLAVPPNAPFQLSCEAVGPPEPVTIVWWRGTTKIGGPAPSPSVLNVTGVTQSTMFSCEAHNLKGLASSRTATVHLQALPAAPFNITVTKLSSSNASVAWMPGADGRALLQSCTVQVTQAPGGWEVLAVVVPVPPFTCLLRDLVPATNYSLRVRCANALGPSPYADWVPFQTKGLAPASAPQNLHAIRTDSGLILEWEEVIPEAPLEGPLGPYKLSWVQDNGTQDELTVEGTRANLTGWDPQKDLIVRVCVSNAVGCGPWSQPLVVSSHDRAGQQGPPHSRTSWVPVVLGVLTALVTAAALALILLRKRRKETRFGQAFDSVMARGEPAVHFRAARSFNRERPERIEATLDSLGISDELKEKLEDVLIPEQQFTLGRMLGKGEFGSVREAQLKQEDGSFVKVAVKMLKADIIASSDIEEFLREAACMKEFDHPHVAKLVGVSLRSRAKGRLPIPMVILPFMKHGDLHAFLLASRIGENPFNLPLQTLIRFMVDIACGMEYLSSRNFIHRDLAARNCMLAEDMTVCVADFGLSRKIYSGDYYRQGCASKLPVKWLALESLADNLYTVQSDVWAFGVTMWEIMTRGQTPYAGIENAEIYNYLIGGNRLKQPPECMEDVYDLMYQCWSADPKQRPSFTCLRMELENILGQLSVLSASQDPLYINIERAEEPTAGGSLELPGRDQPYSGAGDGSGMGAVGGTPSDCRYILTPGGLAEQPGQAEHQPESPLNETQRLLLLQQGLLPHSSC
Chain of Serine/threonine-protein kinase LATS1 (Homo sapiens) (O95835 whole entry): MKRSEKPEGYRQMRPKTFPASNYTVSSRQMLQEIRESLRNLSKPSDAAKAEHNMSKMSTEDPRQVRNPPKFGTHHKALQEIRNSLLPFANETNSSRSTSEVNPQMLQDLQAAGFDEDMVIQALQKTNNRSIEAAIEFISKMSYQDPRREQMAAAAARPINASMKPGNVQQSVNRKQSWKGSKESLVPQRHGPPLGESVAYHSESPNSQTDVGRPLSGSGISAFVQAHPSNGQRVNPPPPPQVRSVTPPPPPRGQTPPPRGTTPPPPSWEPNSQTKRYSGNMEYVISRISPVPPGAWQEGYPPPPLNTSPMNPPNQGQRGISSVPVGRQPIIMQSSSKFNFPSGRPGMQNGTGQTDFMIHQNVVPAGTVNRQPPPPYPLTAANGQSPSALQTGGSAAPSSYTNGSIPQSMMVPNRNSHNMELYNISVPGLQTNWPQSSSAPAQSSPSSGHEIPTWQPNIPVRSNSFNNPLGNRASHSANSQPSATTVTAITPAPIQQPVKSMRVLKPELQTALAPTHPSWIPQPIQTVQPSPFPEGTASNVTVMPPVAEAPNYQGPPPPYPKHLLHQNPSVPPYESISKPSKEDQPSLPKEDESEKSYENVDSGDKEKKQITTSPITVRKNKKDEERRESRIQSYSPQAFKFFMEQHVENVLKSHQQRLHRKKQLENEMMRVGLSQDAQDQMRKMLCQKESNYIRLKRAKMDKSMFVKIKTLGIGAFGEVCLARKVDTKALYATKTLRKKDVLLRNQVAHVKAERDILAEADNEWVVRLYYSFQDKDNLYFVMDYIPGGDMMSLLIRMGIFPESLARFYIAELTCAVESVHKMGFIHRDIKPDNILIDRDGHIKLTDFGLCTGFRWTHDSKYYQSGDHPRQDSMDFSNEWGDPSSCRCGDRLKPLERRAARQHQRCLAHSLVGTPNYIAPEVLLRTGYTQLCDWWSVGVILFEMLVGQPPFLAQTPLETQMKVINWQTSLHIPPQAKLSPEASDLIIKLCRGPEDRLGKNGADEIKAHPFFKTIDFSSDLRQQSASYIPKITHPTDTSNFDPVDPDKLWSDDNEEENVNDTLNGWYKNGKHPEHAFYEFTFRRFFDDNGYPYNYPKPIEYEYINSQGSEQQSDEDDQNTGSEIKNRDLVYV
Chain of Glycogen synthase kinase-3 alpha (Homo sapiens) (P49840 2-483 limits assumed): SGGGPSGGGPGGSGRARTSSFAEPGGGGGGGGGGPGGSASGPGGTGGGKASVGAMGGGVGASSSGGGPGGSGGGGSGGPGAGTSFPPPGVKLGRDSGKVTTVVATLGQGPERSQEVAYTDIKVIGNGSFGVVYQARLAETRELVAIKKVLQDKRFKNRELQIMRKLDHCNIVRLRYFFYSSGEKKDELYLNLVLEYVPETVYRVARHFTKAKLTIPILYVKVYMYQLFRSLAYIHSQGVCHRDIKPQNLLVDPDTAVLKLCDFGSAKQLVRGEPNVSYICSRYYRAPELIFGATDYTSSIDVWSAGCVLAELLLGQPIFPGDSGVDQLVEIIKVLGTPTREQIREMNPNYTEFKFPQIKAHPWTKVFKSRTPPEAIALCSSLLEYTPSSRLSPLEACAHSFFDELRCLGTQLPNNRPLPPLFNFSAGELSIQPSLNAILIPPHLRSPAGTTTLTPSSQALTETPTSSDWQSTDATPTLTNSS
Chain of Serine/threonine-protein kinase pim-1 (Homo sapiens) (P11309 whole entry, looked up, the tested form may be a part): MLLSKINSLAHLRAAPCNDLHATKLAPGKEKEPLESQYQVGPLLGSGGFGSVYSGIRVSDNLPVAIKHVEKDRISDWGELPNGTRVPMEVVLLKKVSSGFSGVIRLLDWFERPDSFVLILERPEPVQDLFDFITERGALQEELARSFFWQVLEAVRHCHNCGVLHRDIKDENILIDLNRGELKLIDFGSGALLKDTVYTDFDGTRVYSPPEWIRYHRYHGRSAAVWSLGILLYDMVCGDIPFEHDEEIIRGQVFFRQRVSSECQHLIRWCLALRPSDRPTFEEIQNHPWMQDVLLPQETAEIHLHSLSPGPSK

CO[C@@H](C)c1c(Nc2ccc([C@H](N(C)C(=O)C3CCS(=O)(=O)CC3)C(F)(F)F)cc2)cnc2cc(Cl)nn12 [NVS-MALT1]
residual activity [1]: 97%
residual activity [2]: 100%
residual activity [3]: 100%
residual activity [4]: 100%
residual activity [5]: 94%
residual activity [6]: 93%
residual activity [7]: 88%
residual activity [8]: 92%
residual activity [9]: 87%
residual activity [10]: 43%
residual activity [11]: 100%
residual activity [12]: 94%
residual activity [13]: 100%
residual activity [14]: 75%
residual activity [15]: 73%
residual activity [16]: 83%
residual activity [17]: 86%
residual activity [18]: 88%
residual activity [19]: 100%
residual activity [20]: 89%
inhibition [21]: 0.32%
inhibition [22]: 9.7%
residual activity [23]: 86%
residual activity [24]: 89%
residual activity [25]: 77%
residual activity [26]: 100%
residual activity [27]: 100%
residual activity [28]: 100%
residual activity [29]: 100%
residual activity [30]: 100%
residual activity [31]: 100%
residual activity [32]: 99%
residual activity [33]: 96%
residual activity [34]: 100%
residual activity [35]: 78%
residual activity [36]: 100%
residual activity [37]: 81%
residual activity [38]: 88%
residual activity [39]: 90%
residual activity [40]: 92%
residual activity [41]: 88%
residual activity [42]: 88%
residual activity [43]: 80%
residual activity [44]: 100%
residual activity [45]: 100%

CO[C@@H](C)c1c(Nc2ccc([C@@H](N(C)C(=O)C3CCS(=O)(=O)CC3)C(F)(F)F)cc2)cnc2cc(Cl)nn12 [NVS-MALT1-C]
residual activity [1]: 90%
residual activity [2]: 94%
residual activity [3]: 100%
residual activity [4]: 100%
residual activity [5]: 97%
residual activity [6]: 96%
residual activity [7]: 100%
residual activity [8]: 100%
residual activity [9]: 79%
residual activity [10]: 29%
residual activity [11]: 93%
residual activity [12]: 100%
residual activity [13]: 100%
residual activity [14]: 92%
residual activity [15]: 81%
residual activity [16]: 87%
residual activity [17]: 94%
residual activity [18]: 100%
residual activity [19]: 100%
residual activity [20]: 89%
inhibition [21]: 1.55%
inhibition [22]: 4.72%
residual activity [23]: 69%
residual activity [24]: 95%
residual activity [25]: 96%
residual activity [26]: 100%
residual activity [27]: 100%
residual activity [28]: 100%
residual activity [29]: 100%
residual activity [30]: 99%
residual activity [31]: 100%
residual activity [32]: 83%
residual activity [33]: 88%
residual activity [34]: 96%
residual activity [35]: 68%
residual activity [36]: 100%
residual activity [37]: 89%
residual activity [38]: 98%
residual activity [39]: 100%
residual activity [40]: 96%
residual activity [41]: 100%
residual activity [42]: 88%
residual activity [43]: 93%
residual activity [44]: 100%
residual activity [45]: 100%

From ChEMBL document CHEMBL4507320, “Data for DCP probe NVS-MALT1” (2021)
